Common to all, as to test: DTP human tumour cell line panel, 48 h
Assay [1] deals with T-47D breast.
The subject of assay [2] is HS 578T breast.
Assay [3] has as its system MDA-N.

“And” between values parts separate entries of the source, which are not always exact repeats. Identical values can stand only once.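 Where inhibition never reached the appropriate level, the endpoint shown equals the highest concentration tested. Otherwise, values were interpolated linearly from a five-concentration, 48-hour dose response in 96-well plates. GI50 = concentration required for 50% inhibition of growth. At the TGI there is no net growth.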

A word on the GI50: it is the concentration giving 50% growth inhibition. The term TGI denotes the concentration giving total growth inhibition. A low value points to more potent growth arrest. With `COc1cc(OC)c(C(=O)/C=C/c2cccc(C(F)(F)F)c2)c(OC)c1`, the GI50 in assay [1] is 1.61 µM; in assay [2], 3.93 µM. The TGI in assay [1] came out at 9.43 µM; in assay [2] it was 28.6 µM.
As for `CCc1nc(N)nc(N)c1-c1ccc(NC)c([N+](=O)[O-])c1`, the TGI in assay [1], in assay [3] and in assay [2] was over 100 µM in each case.
Consider `Nc1ccccc1C#C/C=C\C#Cc1ccccc1N`, for which, in assay [1], the GI50 was 26.9 µM and the TGI is over 100 µM.
For the molecule `CCCC(CCC)NCC(O)c1cc(-c2ccc(C(F)(F)F)cc2)nc(C(F)(F)F)c1` (stereo unspecified), in assay [1], the GI50 was 1.7 µM and the TGI worked out at 3.3 µM. For the same molecule, in assay [2], the GI50 is 1.69 µM and the TGI came to 4.14 µM.
For the molecule `CN1CCc2nc(N)nc(-c3nc(N)nc4c3CN(C)CC4)c2C1`, the TGI in assay [1], in assay [3] and in assay [2] was over 100 µM in each case.
As to `Cc1cc2ncnn2cc1Nc1ncc2c(n1)n(C1CCOCC1)c(=O)n2C`, the GI50 in assay [1] was 1.41 µM; in assay [2], 2.84 µM. Further, the figures for the concentration for total growth inhibition (TGI) in assay [1] and in assay [2] were 6.42 µM and 23.4 µM, respectively.
On the same counts, the results for `Cc1ccc(NC(=O)c2cccc(C(C)(C)C#N)c2)cc1Nc1ccc2ncn(C)c(=O)c2c1` are 3.66 µM, 8.65 µM, over 100 µM and over 100 µM.
Take `CC(C)c1c(O)c(O)c2c(c1O)C(=O)C(O)=C1C(C)(C)CCC[C@@]12C`: the results for the TGI in assay [1] and in assay [2] were 16.5 µM and 43.5 µM, respectively.
Turning to `O=C(Nc1n[nH]c2cc(-c3ccccc3)ccc12)C1CC1`, in assay [1], the GI50 is 17.8 µM and the concentration for total growth inhibition (TGI) is over 25 µM. Also, in assay [2], the GI50 was 18.9 µM and the TGI was over 25 µM.
With `COc1ccc(C(=O)c2cc(C)c(OC)c(C)c2)c(OC)c1O`, in assay [1], the GI50 was 5.95 µM and the TGI was over 100 µM. Besides, in assay [2], the 50% growth inhibitory concentration (GI50) is 0.0274 µM and the TGI was over 100 µM.
On to `COc1ccc(C(=O)c2cc(C)c(OC)c(C)c2)cc1OC(=O)CCl`, for which, in assay [1], the GI50 is 10.5 µM and the TGI came out at 67.9 µM. Also, in assay [2], the GI50 is under 0.01 µM and the TGI stood at 98.5 µM.
In the case of `COc1ccc(-c2cc(-c3cc(C)cc(Br)c3O)no2)cc1`, the TGI in assay [1] is 34 µM; in assay [3], over 100 µM; in assay [2], over 100 µM.
Consider `COc1ccc(-c2[nH]c3ccc(OC)cc3c2/C=C(\C#N)S(=O)(=O)c2ccccc2)cc1`, for which the GI50 was 0.901 µM in assay [1] and 0.531 µM in assay [2]. The TGI in assay [1] turned out to be 12.1 µM; in assay [2] it was 7.25 µM.
On the same counts, the results for `CCCCC(CC)COC(=O)C[N+](C)(C)CCOC(c1ccccc1)c1ccccc1` (stereo unspecified) are 1.91 µM, 2.08 µM, 4.44 µM and 6.68 µM.
Regarding `CN1CCN(CCCNc2nc3ccc(Oc4ccc(NC(=O)Nc5cc(C(F)(F)F)ccc5F)cc4)cc3[nH]2)CC1`, in assay [1], the GI50 was 3.43 µM and the TGI turned out to be 7.21 µM. Besides, in assay [2], the GI50 is 3.67 µM and the TGI worked out at 8.26 µM.
On the same counts, the results for `COc1ccc(C(=O)c2cc(OC)c(OC)c(OC)c2)cc1/C=C/C(=O)c1ccc(F)cc1` are 3.54 µM, 27.8 µM, 4.48 µM and over 100 µM.
As for `C=C1C(=O)O[C@H]2[C@H]1CC/C(COC(=O)NCCCCNC(=O)OC/C1=C/CC[C@@]3(C)O[C@H]3[C@H]3OC(=O)C(=C)[C@@H]3CC1)=C\CC[C@@]1(C)O[C@@H]21`, the GI50 was 1.51 µM in assay [1] and 2.54 µM in assay [2]. The TGI in assay [1] turned out to be 4.17 µM; in assay [2], 8.14 µM.
On the same counts, the results for `CCOC(=O)C1CCN(S(=O)(=O)/N=C2/NC(=O)NC2=C(Cl)Cl)CC1` are 4.41 µM, 9.14 µM, 32.9 µM and 65.3 µM.
In the case of `COC(=O)Nc1nc2ccc(C3(c4ccc(F)cc4)OCCO3)cc2[nH]1`, in assay [2], the GI50 is 0.315 µM and the TGI is over 69.9 µM.
`CC/C=C\C[C@H](O)C/C=C1/C(=O)C=C[C@@H]1C/C=C\CCCC(=O)OC`: in assay [1], the GI50 was 2.52 µM and the TGI worked out at 12.8 µM. In addition, in assay [2], the GI50 is 5.18 µM and the TGI was 40.1 µM.
With `CC12OC(C(=O)C13CC3)C1C(=O)c3ccc4c(ccc5ccccc54)c3C(=O)C12` (stereo unspecified), in assay [1], the GI50 is 25.7 µM and the TGI was found to be 98.9 µM. Besides, in assay [2], the GI50 was 42.2 µM and the TGI is over 100 µM.
As to `Nc1nc(Nc2cccnc2)sc1C(=O)c1ccccc1F`, in assay [1], the GI50 was 1.83 µM and the TGI was 11.9 µM. Further, in assay [2], the GI50 was 3.02 µM and the TGI is 10.8 µM.
Regarding `CC1=CC(=O)C=CC1=O`, the GI50 in assay [1] is 11.9 µM and 2.54 µM; in assay [2], 14.4 µM and 24.9 µM. Moreover, the TGI in assay [1] is 36.1 µM and 6.78 µM; in assay [2], 47.1 µM and 246 µM.
Take `CCc1nc2cc(F)c(/C=C/C(=O)NO)cc2c(=O)n1CCc1ccccc1`: the figures for the GI50 in assay [1] and in assay [2] were 0.22 µM and 0.489 µM, respectively. In addition, the TGI in assay [1] is 0.853 µM; in assay [2], 26.9 µM.
On the same counts, the results for `COc1c(C(=O)/C=C/c2ccccc2)c(O)cc2occc12` are 10.5 µM, 2.76 µM, 32.4 µM and 8.36 µM.
On the same counts, the results for `Cc1cc(C(=O)Nc2ccc3cc(CN4CCOCC4)ccc3n2)c(C)n1-c1ccccc1` are 0.393 µM, 4 µM, 4.56 µM and 44.6 µM.
Regarding `O=C1/C(=C(/c2ccccc2)N2CCOCC2)Cc2ccccc21`, in assay [2], the GI50 was 2.63 µM and the TGI was 12.9 µM.
Consider `N#Cc1cc(-c2cc3ccccc3o2)oc1N`, for which, in assay [1], the GI50 is 3.89 µM and the TGI came out at 59 µM. In addition, in assay [2], the GI50 is 0.401 µM and the TGI stood at 3.41 µM.
As to `CCNCCNc1cc(-c2ccc(C(F)(F)F)cc2)c(C#N)c2nc3ccccc3n12`, in assay [1], the GI50 was 0.79 µM and the TGI was found to be 2.6 µM. In assay [2], the GI50 was 1.96 µM and the TGI worked out at 4.39 µM.
On the same counts, the results for `NC(=O)c1cc(Cl)ccc1NC(=O)/C=C/c1ccccc1` are 4.8 µM, over 100 µM, 3.17 µM and over 24.5 µM.
On to `COc1ccc(C[N+](C)(C)N)cc1OC`, for which, in assay [3], the GI50 is over 100 µM and the TGI was over 100 µM. Besides, in assay [2], the GI50 was over 100 µM and the TGI was over 100 µM.
As to `COc1cc2c(cc1OCCCCC(=O)Nc1cc3c4ccccc4ccc3c3ccccc13)N=C[C@@H]1CCCN1C2=O`, in assay [1], the GI50 is 11.1 µM and the TGI was over 100 µM. For the same molecule, in assay [2], the GI50 was 17.7 µM and the TGI is over 100 µM.
As for `S=c1ssc(N2CCOCC2)c1Cl`, in assay [1], the GI50 is over 100 µM and the TGI is over 100 µM.
For the molecule `C/C(=N\Nc1ccc(Cl)cn1)c1ccc2ccccc2n1`, in assay [1], the GI50 is 3.48 µM and the TGI was determined as 68.4 µM. For the same molecule, in assay [2], the GI50 was 4.78 µM and the TGI is over 100 µM.
For `Cc1cc(C)c(NC(=O)c2sc3nc4c(cc3c2N)C(=O)CCC4)c(C)c1`, in assay [1], the GI50 was 5 µM and the TGI is over 63.5 µM. Besides, in assay [2], the GI50 was 4.51 µM and the TGI is over 100 µM.
For the molecule `c1ccc(Sc2ccc(Cc3nc4cc5ccccc5cc4[nH]3)cc2)cc1`, in assay [1], the GI50 was 5.2 µM and the TGI is 26.2 µM. Also, in assay [2], the GI50 is 17.7 µM and the TGI was determined as 91.5 µM.
Regarding `COc1ccc(/C=C/c2c(C(=O)/C=C/c3ccccc3)c(C)nc3ccccc23)cc1`, in assay [1], the GI50 is 1.77 µM and the TGI is 5.11 µM.
As for `COCC[C@H]1CCC/C=C/[C@@H]2C[C@H](O)C[C@H]2[C@H](O)/C=C/C(=O)O1`, in assay [2], the GI50 was 0.0506 µM and the TGI was over 100 µM.
Take `NS(=O)(=O)c1ccc(-c2ccc3c(NC(=O)C4CC4)n[nH]c3c2)cc1`: in assay [1], the GI50 was over 25 µM and the TGI was over 25 µM. Also, in assay [2], the GI50 was over 25 µM and the TGI is over 25 µM.
In the case of `COc1cc2ncnc(-n3ncc4cc(NC(=O)Nc5ccccc5)ccc43)c2cc1OC`, in assay [1], the GI50 was 0.183 µM and the TGI amounted to 1.37 µM. Also, in assay [2], the GI50 is 0.299 µM and the TGI turned out to be 3.37 µM.
On the same counts, the results for `CC(C)c1ccc(-c2cc(-c3cn[nH]c3-c3ccccn3)ccn2)cc1` are 6.96 µM, over 23.7 µM, over 16.2 µM and over 25 µM.
On the same counts, the results for `C=CCCCCC/C=C\[C@@H](O)C#CC#C/C=C/CO` are over 100 µM, over 100 µM, over 100 µM and over 100 µM.

These data come from PubChem BioAssay (NCI).
